In assay [1] the test system is Pipistrellus bat coronavirus HKU5. Kind of assay: Inhibition of Bat coronavirus HKU5 3CLpro at 100 uM relative to control.
Assay [2] concerns Tylonycteris bat coronavirus HKU4. As to conditions: at 100 µM.
Assay [3] is described as follows: Inhibition of Bat coronavirus HKU5 3CLpro. Also noted: species or system Pipistrellus bat coronavirus HKU5.

pIC50: −log10 of the molar value.

`O=C(Nc1ccc(N(Cc2ccsc2)C(=O)Cn2nnc3ccccc32)cc1)c1cccs1`: the inhibition in assay [1] was 91%; in assay [2], 93%. This compound showed a pIC50 in assay [3] of 6.27.

As for `CC(C)(C)NC(=O)C(c1ccsc1)N(C(=O)Cc1c[nH]c2ccccc12)c1ccc(C(C)(C)C)cc1` (stereo unspecified), in assay [2], the inhibition was determined as 31%.

In assay [2], `CC(C)(C)NC(=O)C(c1cncnc1)N(C(=O)c1ccco1)c1ccc(C(C)(C)C)cc1` (stereo unspecified) had an inhibition of 16%.

For `CC(C)(C)NC(=O)C(c1ccsc1)N(C(=O)Cn1nnc2ccccc21)c1ccc(NC(=O)C2CCC2)cc1` (stereo unspecified), the inhibition in assay [2] came out at 20%.

Consider `CC(C)c1ccc(N(C(=O)c2ccc(C#N)cc2)C(C(=O)NC(C)(C)C)c2ccsc2)cc1` (stereo unspecified), for which, in assay [2], the inhibition was 21%.

In assay [2], `CC(C)(C)NC(=O)C(c1cccnc1)N(C(=O)c1ccc[nH]1)c1ccc(C(C)(C)C)cc1` (stereo unspecified) returned an inhibition of 16%.

As to `CC(C)c1ccc(N(C(=O)Cc2cccnc2)C(C(=O)NC(C)(C)C)c2cccnc2)cc1` (stereo unspecified), the inhibition in assay [2] amounted to 41%.

In turn, `CC(C)(C)NC(=O)C(c1cccnc1)N(C(=O)CO)c1ccc(C(C)(C)C)cc1` (stereo unspecified) showed an inhibition in assay [2] of 29%.

In turn, `CC(C)c1ccc(N(C(=O)Cc2cccnc2)C(C(=O)NC(C)(C)C)c2ccsc2)cc1` (stereo unspecified) showed an inhibition in assay [2] of 24%.

In the case of `CCOc1ccc(N(C(=O)c2ccco2)C(C(=O)NC(C)(C)C)c2cccnc2)cc1` (stereo unspecified), the inhibition in assay [2] stood at 12%.

`CC(C)(C)NC(=O)C(c1cccnc1)N(C(=O)c1ccco1)c1ccc(-c2ccccc2C#N)cc1` (stereo unspecified) displayed an inhibition in assay [2] of 62%.

In the case of `CC(C)C(=O)Nc1ccc(N(Cc2ccsc2)C(=O)Cn2nnc3ccccc32)cc1`, the inhibition in assay [2] stood at 92%.

In turn, `CC(C)(C)NC(=O)C(c1cccnc1)N(C(=O)Cc1cccnc1)c1ccc(C(C)(C)C)cc1` (stereo unspecified) had an inhibition in assay [2] of 23%.

Regarding `CC(C)(C)NC(=O)C(c1cccnc1)N(C(=O)c1ccc(C(F)(F)F)nc1)c1ccc(C(C)(C)C)cc1` (stereo unspecified), in assay [2], the inhibition came to 15%.

The compound `CC(C)(C)NC(=O)C(c1cccnc1)N(C(=O)Cc1cccc2ccccc12)C1CC1` (stereo unspecified) showed an inhibition in assay [2] of 11%.

Regarding `CC(C)(C)NC(=O)C(c1ccccn1)N(C(=O)c1cccnc1)c1ccc(C(C)(C)C)cc1` (stereo unspecified), in assay [2], the inhibition was 12%.

`CC(C)(C)NC(=O)C(c1ccsc1)N(C(=O)c1ccc(C#N)cc1)c1ccc(F)cc1` (stereo unspecified) registered an inhibition in assay [2] of 13%.

For the compound `CC(C)(C)c1ccc(N(Cc2cccnc2)C(=O)c2ccoc2)cc1`, the inhibition in assay [2] worked out at 24%.

`O=C(Cn1nnc2ccccc21)N(Cc1ccsc1)c1ccc(-c2ccccc2)cc1` returned an inhibition in assay [2] of 21%.

As for `CC(C)(C)c1ccc(N(Cc2cccnc2)C(=O)c2c[nH]cn2)cc1`, the inhibition in assay [2] amounted to 28%.

In turn, `CC(C)(C)NC(=O)C(c1cccnc1)N(C(=O)c1n[nH]c2ccccc12)C1CC1` (stereo unspecified) had an inhibition in assay [2] of 21%.

`CC(C)(C)NC(=O)C(c1cc[nH]n1)N(C(=O)c1ccco1)c1ccc(C(C)(C)C)cc1` (stereo unspecified) had an inhibition in assay [2] of 11%.

For `CC(C)(C)NC(=O)C(c1cccnc1)N(C(=O)c1c[nH]cn1)c1ccc(C(C)(C)C)cc1` (racemic), the inhibition in assay [2] worked out at 94%.

With `O=C(Cn1nnc2ccccc21)N(Cc1ccsc1)c1ccc(NC(=O)C(F)(F)F)cc1`, the inhibition in assay [2] was 92%.

`CC(C)(C)NC(=O)C(c1cccnc1)N(C(=O)c1ccc(Cl)cc1)c1ccc(C(C)(C)C)cc1` (stereo unspecified) yielded an inhibition in assay [2] of 27%.

In assay [2], `CC(C)(C)NC(=O)C(c1cccnc1)N(C(=O)Cc1c[nH]c2ccccc12)c1ccc(F)cc1` (stereo unspecified) registered an inhibition of 41%.

Consider `CC(C)(C)NC(=O)C(c1ccsc1)N(C(=O)Cc1cccnc1)c1ccc(C(C)(C)C)cc1` (stereo unspecified), for which the inhibition in assay [2] came out at 23%.

`CC(C)(C)NC(=O)C(c1cccnc1)N(C(=O)c1ccc(C(F)(F)F)cn1)c1ccc(F)cc1` (stereo unspecified) registered an inhibition in assay [2] of 29%.

In the case of `CC(C)(C)NC(=O)C(c1ccsc1)N(C(=O)Cc1c[nH]c2ccccc12)C1CC1` (stereo unspecified), the inhibition in assay [2] was 17%.

Regarding `CC(C)(C)NC(=O)C(c1cccnc1)N(C(=O)c1ccncc1)c1ccc(C(C)(C)C)cc1` (stereo unspecified), the inhibition in assay [2] was 13%.

Consider `Cc1ccc(C(C(=O)NC(C)(C)C)N(C(=O)c2ccco2)c2ccc(C(C)(C)C)cc2)cn1` (stereo unspecified), for which the inhibition in assay [2] was found to be 8%.

Consider `CC(C)(C)NC(=O)C(c1ccsc1)N(C(=O)Cn1nnc2ccccc21)c1ccc(NC(=O)C2CC2)cc1` (stereo unspecified), for which the inhibition in assay [2] was 85%.

For `CC(C)(C)NC(=O)C(c1cccnc1)N(C(=O)CC(F)(F)F)c1ccc(C(C)(C)C)cc1` (stereo unspecified), the inhibition in assay [2] worked out at 13%.

Consider `CC(C)(C)NC(=O)C(c1cccnc1)N(C(=O)c1coc2ccccc12)c1ccc(C(C)(C)C)cc1` (stereo unspecified), for which the inhibition in assay [2] was determined as 19%.

As a reminder, the inhibition is the share of the control response that was lost under treatment. A higher inhibition goes with a strong effect. Usually pIC50 stands for the negative decadic logarithm of the IC50, by convention in mol/L.

The values above are taken from ChEMBL document CHEMBL3603819, “Targeting zoonotic viruses: Structure-based inhibition of the 3C-like protease from bat coronavirus HKU4--The likely reservoir host to the human coronavirus that causes Middle East Respiratory Syndrome (MERS)” (Bioorg Med Chem, 2015).
